Where a name gives a salt, the structure may show the parent alone. Read-outs that look alike come from different tables or passages of the source.
System: pylorous ligated rats
Test: Antisecretory activity in the pylorous ligated rat model
Assay type: in vivo, male Sprague-Dawley rats
Conditions: for inhibition in vivo at 50 mg/kg / inhibition in vivo at 12.5 mg/kg / inhibition in vivo at 25 mg/kg / inhibition in vivo at 100 mg/kg: Rattus norvegicus, 4 h; for inhibition in vivo at 12.5 mg/kg: oral dose 12.5 mg/kg
Protocol: To determine the antisecretory activity of the present compounds, the compounds were tested for such activity in pylorous ligated rats. In this test, male Sprague-Dawley rats weighing 170-190 g. were fasted for 24 hours. Water was allowed ad libitum. All groups were comprised of six rats. […] Water was withheld after drug administration. Ligation of the pyrloric sphincter was performed under ether anesthesia, and four hours after ligation the animals were sacrificed with CO2. The stomach was dissected out and the contents were expelled into a graduated centrifuge tube. The samples were centrifuged and the volume, less debris, was measured. Sample aliquots were titrated with 0.05 N NaOH to determine acid concentration. Pepsin activity was determined on an auto analyzer using hemoglobin as the substrate by the method of Anson. Group means for volume, acid and pepsin concentrations, and pepsin outputs were compared for statistically significant differences from control means by Student's t-test.

[1] = oral dose 50 mg/kg, negative sign means stimulated
[2] = oral dose 50 mg/kg, negative sign means stimulated, read-out: Percent inhibition of pepsin
[3] = oral dose 50 mg/kg, negative sign means stimulated, read-out: Percent inhibition of pepsin output
[4] = oral dose 50 mg/kg, read-out: Percent inhibition of acid output
[5] = oral dose 50 mg/kg, read-out: Percent inhibition of acidity
[6] = oral dose 50 mg/kg, read-out: Percent inhibition of volume
[7] = oral dose 100 mg/kg, negative sign means stimulated, read-out: Percent inhibition of pepsin
[8] = oral dose 100 mg/kg, read-out: Percent inhibition of acid output
[9] = oral dose 100 mg/kg, read-out: Percent inhibition of acidity
[10] = oral dose 100 mg/kg, read-out: Percent inhibition of pepsin output
[11] = oral dose 100 mg/kg, read-out: Percent inhibition of volume

“2-(N-Methyl-1,2,3,4-tetrahydro-4-pyridyl)-5-(methyl) resorcinol [IX]” was tested, and the “Percent inhibition of acid output” value (oral dose 50 mg/kg) was 31.7%, the “Percent inhibition of acidity” value (oral dose 50 mg/kg) was 12.1% and the “Percent inhibition of volume” value (oral dose 50 mg/kg) was 21.9%. For the same molecule, the “Percent inhibition of pepsin” value [1] was -7.2% and the “Percent inhibition of pepsin output” value [1] was 17.0%.
“2-(N-Propargyl-1,2,3,4-tetrahydro-4-pyridyl)-3-methoxy-5-(1,2-dimethylheptyl)phenol [XXIX]” was tested, and the “Percent inhibition of acid output” value (oral dose 25 mg/kg) was 7.8%, the “Percent inhibition of acidity” value (oral dose 25 mg/kg) was 18.6% and the “Percent inhibition of volume” value (oral dose 25 mg/kg) was -13.0%. For the same molecule, the “Percent inhibition of acid output” value (oral dose 50 mg/kg) was 45.6%, the “Percent inhibition of acidity” value (oral dose 50 mg/kg) was 50.6% and the “Percent inhibition of volume” value (oral dose 50 mg/kg) was -5.7%. For the same molecule, the “Percent inhibition of pepsin” value [1] was 21.0%, the “Percent inhibition of pepsin output” value [1] was 23.9% and the “Percent inhibition of acid output” value (oral dose 100 mg/kg) was 49.5%. For the same molecule, the “Percent inhibition of acidity” value (oral dose 100 mg/kg) was 58.1% and the “Percent inhibition of volume” value (oral dose 100 mg/kg) was -21.8%.
For `CC(C)C(C)c1cc(O)c(C2=CCN(C)CC2)c(O)c1` (stereo not drawn) [Example VII, 2-(N-Methyl-1,2,3,6-tetrahydro-4-pyridyl)-5-(1,2-dimethylpropyl) resorcinol hydrochloride], the inhibition in vivo at 50 mg/kg [2] was -24.6%, the inhibition in vivo at 50 mg/kg [3] was -9.9% and the inhibition in vivo at 50 mg/kg [4] was 15.8%. For the same molecule, the inhibition in vivo at 50 mg/kg [5] was 7.1% and the inhibition in vivo at 50 mg/kg [6] was 9.5%.
`CCCCCc1cc(O)c(C2=CCN(C)CC2)c(O)c1` [Example VIII, 2-(N-Methyl-1,2,3,6-tetrahydro-4-pyridyl)-5-pentyl resorcinol hydrochloride] gave an inhibition in vivo at 50 mg/kg [2] of -2%, an inhibition in vivo at 50 mg/kg [3] of 55.9% and an inhibition in vivo at 50 mg/kg [4] of 74.4%. The inhibition in vivo at 50 mg/kg [5] was 41.5% and the inhibition in vivo at 50 mg/kg [6] was 57.4%.
`CCCCCC(C)C(C)c1cc(O)c(C2=CCN(C)CC2)c(O)c1` (stereo not drawn) [Example X, 2-(N-Methyl-1,2,3,6-tetrahydro-4-pyridyl)-5-(1,2-dimethylheptyl) resorcinol] gave an inhibition in vivo at 12.5 mg/kg (negative sign means stimulated, read-out: Percent inhibition of pepsin) of 23.4%, an inhibition in vivo at 12.5 mg/kg (read-out: Percent inhibition of acid output) of 10.8% and an inhibition in vivo at 12.5 mg/kg (read-out: Percent inhibition of acidity) of 13.1%. The inhibition in vivo at 12.5 mg/kg (read-out: Percent inhibition of pepsin output) was 22.6%, the inhibition in vivo at 12.5 mg/kg (read-out: Percent inhibition of volume) was -2.8% and the inhibition in vivo at 25 mg/kg (oral dose 25 mg/kg, negative sign means stimulated, read-out: Percent inhibition of pepsin) was 45.1%. It also gave an inhibition in vivo at 25 mg/kg (oral dose 25 mg/kg, read-out: Percent inhibition of acid output) of 22.9%, an inhibition in vivo at 25 mg/kg (oral dose 25 mg/kg, read-out: Percent inhibition of acidity) of 20.9% and an inhibition in vivo at 25 mg/kg (oral dose 25 mg/kg, read-out: Percent inhibition of pepsin output) of 46.4%. For the same molecule, the inhibition in vivo at 25 mg/kg (oral dose 25 mg/kg, read-out: Percent inhibition of volume) was 1.4%, the inhibition in vivo at 50 mg/kg [2] was 41.5% and the inhibition in vivo at 50 mg/kg [3] was 48%. The inhibition in vivo at 50 mg/kg [4] was 69.3%, the inhibition in vivo at 50 mg/kg [5] was 66.8% and the inhibition in vivo at 50 mg/kg [6] was 7.7%. For the same molecule, the inhibition in vivo at 100 mg/kg [7] was 63%, the inhibition in vivo at 100 mg/kg [8] was 69% and the inhibition in vivo at 100 mg/kg [9] was 68.4%. It also gave an inhibition in vivo at 100 mg/kg [10] of 63.2% and an inhibition in vivo at 100 mg/kg [11] of 1.7%.
With `CC(C)c1cc(O)c(C2=CCN(Cc3ccccc3)CC2)c(O)c1` [Example XI, 2-(N-Benzyl-1,2,3,6-tetrahydro-4-pyridyl)-5-isopropyl resorcinol hydrochloride] the inhibition in vivo at 50 mg/kg [2] was -36%, the inhibition in vivo at 50 mg/kg [3] was 47.1% and the inhibition in vivo at 50 mg/kg [4] was 68.2%. It also gave an inhibition in vivo at 50 mg/kg [5] of 22.8% and an inhibition in vivo at 50 mg/kg [6] of 63.8%.
`CCCCCc1cc(O)c(C2=CCN(CCc3ccccc3)CC2)c(O)c1` [Example XIX, 2-(N-Phenethyl-1,2,3,6-tetrahydro-4-pyridyl)-5-pentyl resorcinol hydrochloride] was tested, and the inhibition in vivo at 50 mg/kg [2] was 6.9%, the inhibition in vivo at 50 mg/kg [3] was 31.7% and the inhibition in vivo at 50 mg/kg [4] was 27.3%. It also gave an inhibition in vivo at 50 mg/kg [5] of 4.2% and an inhibition in vivo at 50 mg/kg [6] of 25.5%.
For `CCCCCC(C)C(C)c1cc(O)c(C2=CCNCC2)c(O)c1` (stereo not drawn) [Example XV, 2-(1,2,3,6-Tetrahydro-4-pyridyl)-5-(1,2-dimethylheptyl) resorcinol hydrochloride], the inhibition in vivo at 50 mg/kg [2] was 53.8%, the inhibition in vivo at 50 mg/kg [3] was 54.3% and the inhibition in vivo at 50 mg/kg [4] was 22.8%. For the same molecule, the inhibition in vivo at 50 mg/kg [5] was 24.3%, the inhibition in vivo at 50 mg/kg [6] was -1.4% and the inhibition in vivo at 100 mg/kg [7] was 34.5%. The inhibition in vivo at 100 mg/kg [8] was 52.8%, the inhibition in vivo at 100 mg/kg [9] was 43.6% and the inhibition in vivo at 100 mg/kg [10] was 41.4%. For the same molecule, the inhibition in vivo at 100 mg/kg [11] was 12.9%.

— US4180669A, “2-(N-phenethyl-4-piperidino)-5-pentyl resorcinol” (Abbott Laboratories, priority 1978, dated 1979)
